Measurements: patent publication US4312867A, “Antibacterial compounds, processes for their preparation and compositions containing them” (Beecham Group Limited, priority 1979, dated 1982)
In brackets after ≈: the same amount, converted by molar mass.

Experiments:
E. coli NCTC 10418 [1] = experiment: MIC human bacteria (Table 1), serial dilution in nutrient agar; type: cell-based; details: Escherichia coli, NCTC10418; E. coli NCTC 10418; nutrient agar with 5% chocolated horse blood; read-out: MIC
E. coli ESS = experiment: as above; type: cell-based; details: Escherichia coli; E. coli ESS; nutrient agar with 5% chocolated horse blood; read-out: MIC
P. mirabilis 889 = experiment: as above; type: cell-based; details: Proteus mirabilis; P. mirabilis 889; nutrient agar with 5% chocolated horse blood; read-out: MIC
K. aerogenes A = experiment: as above; type: cell-based; details: Klebsiella aerogenes, nutrient agar with 5% chocolated horse blood
Ps. aeruginosa 10662 = experiment: as above; type: cell-based; details: Pseudomonas aeruginosa, nutrient agar with 5% chocolated horse blood
[2] = system: Pasteurella multocida 1633; experiment: as above; type: cell-based; details: Pasteurella multocida 1633; nutrient agar with 5% chocolated horse blood; read-out: MIC
[3] = system: Haemophilus influenzae Q1; experiment: as above; type: cell-based; details: Haemophilus influenzae Q1; nutrient agar with 5% chocolated horse blood; read-out: MIC
[4] = system: Haemophilus influenzae Wy21; experiment: as above; type: cell-based; details: Haemophilus influenzae Wy21; nutrient agar with 5% chocolated horse blood; read-out: MIC
[5] = system: Neisseria catarrhalis 1502; experiment: as above; type: cell-based; details: nutrient agar with 5% chocolated horse blood
Bacillus subtilis 6633 = experiment: as above; type: cell-based; details: nutrient agar with 5% chocolated horse blood
[6] = system: Corynebacterium xerosis 9755; experiment: as above; type: cell-based; details: nutrient agar with 5% chocolated horse blood
Sarcina lutea 8340 = experiment: as above; type: cell-based; details: nutrient agar with 5% chocolated horse blood
Staph aureus Oxford [7] = experiment: as above; type: cell-based; details: Staphylococcus aureus, nutrient agar with 5% chocolated horse blood
Staph aureus Russell = experiment: as above; type: cell-based; details: Staphylococcus aureus, nutrient agar with 5% chocolated horse blood
Staph aureus W2827 = experiment: as above; type: cell-based; details: Staphylococcus aureus, nutrient agar with 5% chocolated horse blood
Strep faecalis I = experiment: as above; type: cell-based; details: nutrient agar with 5% chocolated horse blood
Strep pyogenes A 64/848 = experiment: as above; type: cell-based; details: nutrient agar with 5% chocolated horse blood
Strep pyogenes B 2788 = experiment: as above; type: cell-based; details: nutrient agar with 5% chocolated horse blood
Strep pyogenes C 2761 = experiment: as above; type: cell-based; details: nutrient agar with 5% chocolated horse blood
Strep pneumoniae CN33 = experiment: as above; type: cell-based; details: nutrient agar with 5% chocolated horse blood
E. coli NCTC 10418 [8] = experiment: MIC veterinary bacteria (Table 2), serial dilution in agar; type: cell-based; details: Escherichia coli, NCTC10418; E. coli NCTC 10418; diagnostic sensitivity test agar; read-out: MIC
E. coli E1 = experiment: as above; type: cell-based; details: Escherichia coli, diagnostic sensitivity test agar
S. dublin S7 = experiment: as above; type: cell-based; details: Salmonella enterica, diagnostic sensitivity test agar
S. typhimurium S18 = experiment: as above; type: cell-based; details: Salmonella enterica, diagnostic sensitivity test agar
Bord bronchiseptica B08 = experiment: as above; type: cell-based; details: diagnostic sensitivity test agar
Bord bronchiseptica B09 = experiment: as above; type: cell-based; details: diagnostic sensitivity test agar
Past multocida PA1 = experiment: as above; type: cell-based; details: diagnostic sensitivity test agar
Past multocida PA2 = experiment: as above; type: cell-based; details: diagnostic sensitivity test agar
[9] = system: Erysipelothrix rhusiopathiae NCTC 8163; experiment: as above; type: cell-based; details: Erysipelothrix rhusiopathiae, NCTC8163
[10] = system: Corynebacterium pyogenes CY1; experiment: as above; type: cell-based; details: Trueperella pyogenes, diagnostic sensitivity test agar
[11] = system: Staph aureus B4 (pen. resis); experiment: as above; type: cell-based; details: Staphylococcus aureus; Staph aureus B4 (pen. resis); diagnostic sensitivity test agar; read-out: MIC
[12] = system: Staph aureus 152 (pen. sens); experiment: as above; type: cell-based; details: Staphylococcus aureus, diagnostic sensitivity test agar
Staph aureus Oxford [13] = experiment: as above; type: cell-based; details: Staphylococcus aureus; Staph aureus Oxford; diagnostic sensitivity test agar; read-out: MIC
[14] = system: Strep suis (group D) SPS11; experiment: as above; type: cell-based; details: diagnostic sensitivity test agar
Strep uberis SPU1 = experiment: as above; type: cell-based; details: diagnostic sensitivity test agar
Strep dysgalaciae SPD1 = experiment: as above; type: cell-based; details: diagnostic sensitivity test agar
Strep agalactiae SPA1 = experiment: as above; type: cell-based; details: diagnostic sensitivity test agar
M. suipneumoniae LABER = experiment: anti-mycoplasmal MIC, Friis broth solidified with agarose (Table 4); type: cell-based; details: Mesomycoplasma hyopneumoniae, 144 h, 6 days at 37° C.
M. hyorhinis ATCC 25021 = experiment: as above; type: cell-based; details: Mesomycoplasma hyorhinis, ATCC25021, 144 h, 6 days at 37° C.
[15] = system: M. bovigenitalium ATCC 14173; experiment: as above; type: cell-based; details: 144 h; M. bovigenitalium ATCC 14173; 6 days at 37° C.; read-out: MIC
M. pneumoniae ATCC 15492 = experiment: as above; type: cell-based; details: Mycoplasmoides pneumoniae, ATCC15492, 144 h, 6 days at 37° C.
[16] = Serum binding by ultrafiltration of porcine serum; type: in vitro ADME; details: pig, 8 mcg/ml, microbiological assay, read-out: % bound to pig serum (converted)
Experimental: Serum binding was assessed by ultrafiltration of porcine serum containing compounds at 8 mcg/ml, and through an Amicon CF50A ultrafiltration cone. Separation of ultrafiltrate was achieved by centrifugation. Unbound concentrations of compound were measured in the ultrafiltrate by microbiological assay (B. subtilis ATCC 6633) against standards prepared in saline.

For C/C(=C\C(=O)OC(C)CCCCCS(N)(=O)=O)CC1OCC(CC2OC2C(C)C(C)O)C(O)C1O (stereo not drawn) [Example 5, 7-Sulphamoylhept-2-yl monate A], the MIC (E. coli NCTC 10418 [1]) was > 100 µg/mL, the MIC (E. coli ESS) was 2.5 µg/mL (≈ 4.79 µM) and the MIC (P. mirabilis 889) was > 100 µg/mL. The MIC (K. aerogenes A) was > 100 µg/mL, the MIC (Ps. aeruginosa 10662) was > 100 µg/mL and the MIC [2] was 2.5 µg/mL (≈ 4.79 µM). For the same compound, the MIC [3] was 0.2 µg/mL (≈ 0.383 µM), the MIC [4] was 0.2 µg/mL (≈ 0.383 µM) and the MIC [5] was 1 µg/mL (≈ 1.92 µM). The MIC (Bacillus subtilis 6633) was 2.5 µg/mL (≈ 4.79 µM), the MIC [6] was “No Growth” and the MIC (Sarcina lutea 8340) was “No Growth”. The MIC (Staph aureus Oxford [7]) was 10 µg/mL (≈ 19.2 µM), the MIC (Staph aureus Russell) was 10 µg/mL (≈ 19.2 µM) and the MIC (Staph aureus W2827) was 25 µg/mL (≈ 47.9 µM). The MIC (Strep faecalis I) was > 100 µg/mL, the MIC (Strep pyogenes A 64/848) was 2.5 µg/mL (≈ 4.79 µM) and the MIC (Strep pyogenes B 2788) was 2.5 µg/mL (≈ 4.79 µM). For the same compound, the MIC (Strep pyogenes C 2761) was 2.5 µg/mL (≈ 4.79 µM), the MIC (Strep pneumoniae CN33) was 1 µg/mL (≈ 1.92 µM) and the MIC (E. coli NCTC 10418 [8]) was > 80 µg/mL. The MIC (E. coli E1) was > 80 µg/mL, the MIC (S. dublin S7) was > 80 µg/mL and the MIC (S. typhimurium S18) was > 80 µg/mL. For the same compound, the MIC (Bord bronchiseptica B08) was 40 µg/mL (≈ 76.7 µM), the MIC (Bord bronchiseptica B09) was 10 µg/mL (≈ 19.2 µM) and the MIC (Past multocida PA1) was 0.625 µg/mL (≈ 1.2 µM). The MIC (Past multocida PA2) was 0.312 µg/mL (≈ 0.598 µM), the MIC [9] was 40 µg/mL (≈ 76.7 µM) and the MIC [10] was 80 µg/mL (≈ 153 µM). It also gave an MIC [11] of 5 µg/mL (≈ 9.58 µM), an MIC [12] of 1.25 µg/mL (≈ 2.4 µM) and an MIC (Staph aureus Oxford [13]) of 1.25 µg/mL (≈ 2.4 µM). For the same compound, the MIC [14] was 5 µg/mL (≈ 9.58 µM), the MIC (Strep uberis SPU1) was 0.625 µg/mL (≈ 1.2 µM) and the MIC (Strep dysgalaciae SPD1) was 0.625 µg/mL (≈ 1.2 µM). It also gave an MIC (Strep agalactiae SPA1) of 1.25 µg/mL (≈ 2.4 µM), an MIC (M. suipneumoniae LABER) of 250 µg/mL (≈ 479 µM) and an MIC (M. hyorhinis ATCC 25021) of 250 µg/mL (≈ 479 µM). It also gave an MIC [15] of 50 µg/mL (≈ 95.8 µM), an MIC (M. pneumoniae ATCC 15492) of 1000 µg/mL (≈ 1920 µM) and a fraction unbound [16] of 0.354.
